Usually melting point stands for the temperature, or range, at which the solid turns liquid. As usually defined, the Ki is the dissociation constant of the complex between target and ligand, obtained from inhibition or displacement.

Consider 28 molecules from patent US20060173048A1, “Imidazole derivatives” (priority 2005, published 2006).

T1 sequence (P31421 19-872): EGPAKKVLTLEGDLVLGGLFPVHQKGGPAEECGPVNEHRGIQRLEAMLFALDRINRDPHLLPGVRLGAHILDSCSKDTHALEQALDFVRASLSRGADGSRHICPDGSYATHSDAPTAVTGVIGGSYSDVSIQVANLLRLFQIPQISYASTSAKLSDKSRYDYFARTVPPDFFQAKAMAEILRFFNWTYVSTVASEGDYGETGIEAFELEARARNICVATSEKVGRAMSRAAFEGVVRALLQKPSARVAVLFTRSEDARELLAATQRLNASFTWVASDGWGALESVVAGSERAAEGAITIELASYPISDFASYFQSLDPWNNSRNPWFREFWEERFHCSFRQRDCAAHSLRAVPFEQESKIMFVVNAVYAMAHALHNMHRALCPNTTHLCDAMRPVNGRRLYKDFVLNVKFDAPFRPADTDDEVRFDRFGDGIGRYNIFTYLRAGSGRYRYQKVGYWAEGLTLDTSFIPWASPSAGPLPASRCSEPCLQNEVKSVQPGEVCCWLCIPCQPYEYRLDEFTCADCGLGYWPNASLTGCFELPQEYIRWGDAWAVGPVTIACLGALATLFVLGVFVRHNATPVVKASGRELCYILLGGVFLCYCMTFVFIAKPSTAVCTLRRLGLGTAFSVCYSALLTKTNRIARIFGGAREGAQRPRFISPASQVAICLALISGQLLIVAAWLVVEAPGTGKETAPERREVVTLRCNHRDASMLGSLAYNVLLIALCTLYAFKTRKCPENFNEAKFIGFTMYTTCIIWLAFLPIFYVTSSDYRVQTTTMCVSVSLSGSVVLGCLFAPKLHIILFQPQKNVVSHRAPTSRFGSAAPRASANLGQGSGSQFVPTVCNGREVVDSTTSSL

System in one data set: not given
Assay: not given
Conditions: not given
For `Cn1c(-c2c(Cl)cccc2Cl)nc(-c2ccncc2)c1-c1ccc(Cl)cc1` [Example 3, 4-[5-(4-Chloro-phenyl)-2-(2,6-dichloro-phenyl)-1-methyl-1H-imidazol-4-yl]-pyridine], the melting point was in the range of 257 to 260 °C.

As to `CCn1c(-c2c(Cl)cccc2Cl)nc(-c2ccncc2)c1-c1ccc(C)cc1` [Example 11, 4-[2-(2,6-Dichloro-phenyl)-1-ethyl-5-(4-methyl-phenyl)-1H-imidazol-4-yl]-pyridine], the melting point lay in the range of 191 to 193 °C.

The molecule `CCn1c(-c2c(OC)cc(OC)cc2OC)nc(-c2ccncc2)c1-c1ccc(Cl)cc1` [Example 18, 4-[5-(4-Chloro-phenyl)-1-ethyl-2-(2,4,6-trimethoxy-phenyl)-1H-imidazol-4-yl]-pyridine] returned a melting point of 255 to 256 °C.

`C=CCn1c(-c2c(C)cc(C)cc2C)nc(-c2ccncc2)c1-c1ccc(C(F)(F)F)cc1` [Example 20, 4-[1-Allyl-5-(4-trifluoromethyl-phenyl)-2-(2,4,6-trimethyl-phenyl)-1H-imidazol-4-yl]-pyridine] returned a melting point of 209 to 210 °C.

Molecule `C=CCn1c(-c2c(C)cc(C)cc2C)nc(-c2ccncc2)c1-c1ccc(Cl)cc1` [Example 21, 4-[1-Allyl-5-(4-chloro-phenyl)-2-(2,4,6-trimethyl-phenyl)-1H-imidazol-4-yl]-pyridine] displayed a melting point of 151 to 154 °C.

`C=CCn1c(-c2c(Cl)cccc2Cl)nc(-c2ccncc2)c1-c1ccc(Cl)cc1` [Example 22, 4-[1-Allyl-5-(4-chloro-phenyl)-2-(2,6-dichloro-phenyl)-1H-imidazol-4-yl]-pyridine] displayed a melting point of 163 to 165 °C.

The molecule `C=CCn1c(-c2c(C)cc(C)cc2C)nc(-c2ccncc2)c1-c1ccc(C)cc1` [Example 23, 4-[1-Allyl-5-(4-methyl-phenyl)-2-(2,4,6-trimethyl-phenyl)-1H-imidazol-4-yl]-pyridine] came in with a melting point of 115 to 118 °C.

Take `FC(F)(F)Cn1c(-c2c(Cl)cccc2Cl)nc(-c2ccncc2)c1-c1ccc(Cl)cc1` [Example 25, 4-[5-(4-Chloro-phenyl)-2-(2,6-dichloro-phenyl)-1-(2,2,2-trifluoro-ethyl)-1H-imidazol-4-yl]-pyridine]: the melting point was in the range of 213 to 214 °C.

`OCCCn1c(-c2c(Cl)cccc2Cl)nc(-c2ccncc2)c1-c1ccc(Cl)cc1` [Example 29, 3-[5-(4-Chloro-phenyl)-2-(2,6-dichloro-phenyl)-4-pyridin-4-yl-imidazol-1-yl]-propan-1-ol]: the melting point is 233 to 235 °C.

`CCn1c(-c2ccc(C(F)(F)F)cc2C(F)(F)F)nc(-c2ccncc2)c1-c1ccc(Cl)cc1` [Example 30, 4-[2-(2,4-Bis-trifluoromethyl-phenyl)-5-(4-chloro-phenyl)-1-ethyl-1H-imidazol-4-yl]-pyridine] displayed a melting point of 148 to 150 °C.

The molecule `CCn1c(-c2ccnc3ccccc23)nc(-c2ccncc2)c1-c1ccc(Cl)cc1` [Example 32, 4-[5-(4-Chloro-phenyl)-1-ethyl-4-pyridin-4-yl-1H-imidazol-2-yl]-quinoline] displayed a melting point of 167 to 169 °C.

In the case of `CCn1c(-c2cc3ccccc3[nH]2)nc(-c2ccncc2)c1-c1ccc(Cl)cc1` [Example 33, 2-[5-(4-Chloro-phenyl)-1-ethyl-4-pyridin-4-yl-1H-imidazol-2-yl]-1H-indole], the melting point is 279 to 280 °C.

In turn, `CCC(CC)c1nc(-c2ccncc2)c(-c2ccc(Cl)cc2)n1C` [Example 36, 4-[5-(4-Chloro-phenyl)-2-(1-ethyl-propyl)-1-methyl-1H-imidazol-4-yl]-pyridine] showed a melting point of 100 to 102 °C.

Take `CCn1c(C(c2ccccc2)c2ccccc2)nc(-c2ccncc2)c1-c1ccc(Cl)cc1` [Example 39, 4-[2-Benzhydryl-5-(4-chloro-phenyl)-1-ethyl-1H-imidazol-4-yl]-pyridine]: the melting point lay in the range of 199 to 200 °C.

Molecule `CCn1c(C(O)(C(C)C)C(C)C)nc(-c2ccncc2)c1-c1ccc(Cl)cc1` [Example 41, 3-[5-(4-Chloro-phenyl)-1-ethyl-4-pyridin-4-yl-1H-imidazol-2-yl]-2,4-dimethyl-pentan-3-ol] gave a melting point of 221 to 223 °C.

In the case of `C=CCC(O)(CC=C)c1nc(-c2ccncc2)c(-c2ccc(Cl)cc2)n1CC` [Example 42, 4-[5-(4-Chloro-phenyl)-1-ethyl-4-pyridin-4-yl-1H-imidazol-2-yl]-hepta-1,6-dien-4-ol], the melting point lay within 159 to 160 °C.

In the case of `CCn1c(C(O)(c2ccccc2)c2ccccc2)nc(-c2ccncc2)c1-c1ccc(Cl)cc1` [Example 44, [5-(4-Chloro-phenyl)-1-ethyl-4-pyridin-4-yl-1H-imidazol-2-yl]-diphenyl-methanol], the melting point fell in the range of 222 to 223 °C.

In turn, `CCn1c(C(O)(c2cccc(C(F)(F)F)c2)c2cccc(C(F)(F)F)c2)nc(-c2ccncc2)c1-c1ccc(Cl)cc1` [Example 45, [5-(4-Chloro-phenyl)-1-ethyl-4-pyridin-4-yl-1H-imidazol-2-yl]-bis-(3-trifluoromethyl-phenyl)-methanol] registered a melting point of 193 to 195 °C.

`CCn1c(C(O)(c2cccc(F)c2)c2cccc(F)c2)nc(-c2ccncc2)c1-c1ccc(Cl)cc1` [Example 46, [5-(4-Chloro-phenyl)-1-ethyl-4-pyridin-4-yl-1H-imidazol-2-yl]-bis-(3-fluoro-phenyl)-methanol] had a melting point of 225 to 227 °C.

`CCn1c(C(O)(Cc2ccccc2)Cc2ccccc2)nc(-c2ccncc2)c1-c1ccc(Cl)cc1` [Example 48, 2-[5-(4-Chloro-phenyl)-1-ethyl-4-pyridin-4-yl-1H-imidazol-2-yl]-1,3-diphenyl-propan-2-ol] had a melting point of 116 to 117 °C.

Consider `CCCn1c(-c2c(Cl)cccc2Cl)nc(-c2ccncc2)c1-c1ccc(Cl)cc1` [Example 49, 4-[5-(4-Chloro-phenyl)-2-(2,6-dichloro-phenyl)-1-propyl-1H-imidazol-4-yl]-pyridine], for which the melting point lay in the range of 220 to 222 °C.

Molecule `CCCn1c(-c2c(Cl)cccc2Cl)nc(-c2ccncc2)c1-c1ccc(C)cc1` [Example 50, 4-[2-(2,6-Dichloro-phenyl)-1-propyl-5-(4-methyl-phenyl)-1H-imidazol-4-yl]-pyridine] displayed a melting point of 200 to 201 °C.

Regarding `CCCn1c(-c2c(C)cc(C)cc2C)nc(-c2ccncc2)c1-c1ccc(C)cc1` [Example 51, 4-[1-Propyl-5-(4-methyl-phenyl)-2-(2,4,6-trimethyl-phenyl)-1H-imidazol-4-yl]-pyridine], the melting point lay in the range of 134 to 136 °C.

Molecule `CCn1c(C(OCCO)(c2cccc(C(F)(F)F)c2)c2cccc(C(F)(F)F)c2)nc(-c2ccncc2)c1-c1ccc(Cl)cc1` [Example 52, 2-[[5-(4-Chloro-phenyl)-1-ethyl-4-pyridin-4-yl-1H-imidazol-2-yl]-bis-(3-trifluoromethyl-phenyl)-methoxy]-ethanol] registered a melting point of 222 to 223 °C.

Consider `CCn1c(C(c2cccc(F)c2)c2cccc(F)c2)nc(-c2ccncc2)c1-c1ccc(Cl)cc1` [Example 53, 4-[2-[Bis-(3-fluoro-phenyl)-methyl]-5-(4-chloro-phenyl)-1-ethyl-1H-imidazol-4-yl]-pyridine], for which the melting point was in the range of 184 to 186 °C.

With `CCn1c(-c2c(Cl)cccc2Cl)nc(-c2ccnc(Cl)c2)c1-c1ccc(Cl)cc1` [Example 54, 2-Chloro-4-[5-(4-chloro-phenyl)-2-(2,6-dichloro-phenyl)-1-ethyl-1H-imidazol-4-yl]-pyridine], the melting point is 187 to 189 °C.

`CCn1c(-c2c(Cl)cccc2Cl)nc(-c2ccnc(OC)c2)c1-c1ccc(Cl)cc1` [Example 55, 4-[5-(4-Chloro-phenyl)-2-(2,6-dichloro-phenyl)-1-ethyl-1H-imidazol-4-yl]-2-methoxy-pyridine]: the melting point fell in the range of 138 to 140 °C.

The next data set has as its target T1, rat mGlu2 receptor (Rattus norvegicus, UniProt P31421).
T1 construct: expressed in transfected cells; host or cells: CHO cells, stably transfected (G-418 selection); membranes were prepared from them
In words: [3H]-LY354740 binding on mGlu2 transfected CHO cell membranes. As to conditions: displacement of 10 nM [3H]-LY354740, membranes of CHO cells transfected with rat mGlu2, room temperature, 1 hour. An excerpt:
[^3H]-LY354740 Binding on mGlu2 Transfected CHO Cell Membranes. Transfection and Cell Culture
cDNA encoding the rat mGlu2 receptor protein in pBluescript II was subcloned into the eukaryotic expression vector pcDNA I-amp from Invitrogen Ltd (Paisley, UK). This vector construct (pcD1mGR^2) was co-transfected with a psvNeo plasmid encoding the gene for neomycin resistance, into CHO cells by a modified calcium phosphate method described by Chen & Okayama (1988). The cells were maintained in Dulbecco's Modified Eagle medium with reduced L-glutamine (2 mM final concentration) and 10% dialysed foetal calf serum from Gibco-Invitrogen (Carlsbad, Calif., USA). Selection was made in the presence of G-418 (1000 ug/ml final) and […]. Clones were identified by reverse transcription of 5 μg total RNA, followed by PCR using mGlu2 receptor specific primers 5′-[…]-3′ and 540 -[…]-3′ in 60 mM Tris HCl (pH 10), 15 mM (NH4)2SO4, 2 mM MgCl2, 25 units/ml Taq Polymerase with 30 cycles annealing at 60° C. for 1 min., extention at 72° C. for 30 s, and 1 min. 95° C. denaturation.
Cells, cultured as above, were harvested and washed three times with cold PBS and frozen at −80° C. The pellet was resuspended in cold 20 mM HEPES-NaOH buffer containing 10 mM EDTA (pH 7.4), and homogenised with a polytron (Kinematica, AG, Littau, Switzerland) for 10 s at 10 000 rpm. After centrifugation for 30 min. at 4° C., the pellet was washed once with the same buffer, and once with cold 20 mM HEPES-NaOH buffer containing 0.1 mM EDTA, (pH 7.4). Protein content was measured using the micro BCA method from Pierce-Perbio (Rockford, Ill., USA) using bovine serum albumin as standard.
After thawing, the membranes were resuspended in cold 50 mM Tris-HCl buffer containing 2 mM MgCl2 (pH 7) (binding buffer). The final concentration of the membranes in the assays was 25 μg protein/ml. Inhibition experiments were performed with membranes incubated with 10 nM [^3H]-LY354740 at room temperature, for 1 hour, in presence of various concentrations of the compound to be tested. Following the incubations, membranes were filtered onto Whatmann GF/B glass fiber filters and washed 5 times with cold binding buffer. Non specific binding was measured in the presence of 10 μM DCG IV. After transfer of the filters into plastic vials containing 10 ml of Ultima-gold scintillation fluid from Perkin-Elmer (Boston, Mass., USA), the radioactivity was measured by liquid scintillation in a Tri-Carb 2500 TR counter (Packard, Zürich, Switzerland).
The inhibition curves were fitted with a four parameter logistic equation giving IC50 values, and Hill coefficients.
With `Cn1c(-c2c(Cl)cccc2Cl)nc(-c2ccncc2)c1-c1ccc(Cl)cc1` [Example 3, 4-[5-(4-Chloro-phenyl)-2-(2,6-dichloro-phenyl)-1-methyl-1H-imidazol-4-yl]-pyridine], the Ki was 7 nM.

In turn, `CCn1c(-c2c(Cl)cccc2Cl)nc(-c2ccncc2)c1-c1ccc(C)cc1` [Example 11, 4-[2-(2,6-Dichloro-phenyl)-1-ethyl-5-(4-methyl-phenyl)-1H-imidazol-4-yl]-pyridine] came in with a Ki of 13 nM.

For `Cc1cc(C)c(-c2nc(-c3ccncc3)c(-c3ccc(Cl)cc3)n2CCO)c(C)c1` [Example 26, 2-[5-(4-Chloro-phenyl)-4-pyridin-4-yl-2-(2,4,6-trimethyl-phenyl)-imidazol-1-yl]-ethanol], affinity was put at a Ki of 63 nM.
